According to PubChem BioAssay (NCI):
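Grown in 96-well plates, cells were treated for 48 hours with each compound at five concentrations. Insufficient inhibition: endpoint recorded as highest concentration tested. Definition used: TGI = concentration required for complete inhibition of growth.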

Legend:
Experiment in all cases: DTP human tumour cell line panel, 48 h
786-0 renal = system: 786-0 renal
A549 NSCLC = system: A549 NSCLC
EKVX NSCLC = system: EKVX NSCLC
HCT-15 colon = system: HCT-15 colon
HOP-62 NSCLC = system: HOP-62 NSCLC
HOP-92 NSCLC = system: HOP-92 NSCLC
HS 578T breast = system: HS 578T breast
HT29 colon = system: HT29 colon
KM12 colon = system: KM12 colon
MCF7 breast = system: MCF7 breast
NCI-H23 lung = system: NCI-H23 lung
NCI-H522 lung = system: NCI-H522 lung
OVCAR-8 ovarian = system: OVCAR-8 ovarian
SF-268 CNS = system: SF-268 CNS
SK-MEL-5 melanoma = system: SK-MEL-5 melanoma
SR leukemia = system: SR leukemia
T-47D breast = system: T-47D breast
HCC-2998 colon = system: HCC-2998 colon
UO-31 renal = system: UO-31 renal

SMILES	TGI (786-0 renal)	TGI (A549 NSCLC)	TGI (EKVX NSCLC)	TGI (HCT-15 colon)	TGI (HOP-62 NSCLC)	TGI (HOP-92 NSCLC)	TGI (HS 578T breast)	TGI (HT29 colon)	TGI (KM12 colon)	TGI (MCF7 breast)	TGI (NCI-H23 lung)	TGI (NCI-H522 lung)	TGI (OVCAR-8 ovarian)	TGI (SF-268 CNS)	TGI (SK-MEL-5 melanoma)	TGI (SR leukemia)	TGI (T-47D breast)	TGI (HCC-2998 colon)	TGI (UO-31 renal)
CC(=O)Oc1ccn2nc(C)c(Cc3c(C)nn4ccc(OC(C)=O)cc34)c2c1	> 100 µM	> 100 µM	> 100 µM	> 100 µM	> 100 µM	> 100 µM	> 100 µM	> 100 µM	> 100 µM	> 10 µM	> 100 µM	> 100 µM	> 100 µM	> 100 µM	> 100 µM	> 100 µM	> 100 µM		
Nn1c(-c2ccccc2Nc2ccccc2-c2n[nH]c(=S)n2N)n[nH]c1=S	> 50 µM		> 50 µM	> 50 µM	> 50 µM	> 50 µM		> 50 µM	> 50 µM	> 50 µM	> 50 µM	> 50 µM	> 50 µM	> 50 µM	> 50 µM	> 50 µM		> 50 µM	> 50 µM
CCOP(=O)(OCC)/C(=C/c1ccccc1)CC(C)=O	> 100 µM	> 100 µM	> 100 µM	> 100 µM	> 100 µM	> 100 µM	> 100 µM	> 100 µM	> 100 µM	> 100 µM	> 100 µM		> 100 µM	> 100 µM	> 100 µM		> 100 µM	> 100 µM	> 100 µM
CC(=O)OC[C@@]12CC[C@H]3C(C)(C)CCC[C@]3(C)[C@H]1C[C@@H](C1=CC(=O)O[C@H]1O)O2	3.32 µM	20.4 µM	24.3 µM	5.15 µM	23 µM		17 µM	7.71 µM	35.8 µM	11.2 µM	5.01 µM	8.03 µM	13.7 µM	28.1 µM	9.08 µM	4.08 µM	8.67 µM	3.12 µM	4.95 µM
COc1ccc(Cc2cc(OC)c(OC)c(OC)c2)cc1O	> 100 µM	> 100 µM	> 100 µM	> 100 µM	> 49.6 µM		> 100 µM	> 90.6 µM		> 100 µM	> 100 µM	5.49 µM	> 100 µM	> 100 µM	> 37 µM	> 100 µM	> 100 µM	> 65.9 µM	> 63.2 µM
O=C1OC(C2Cc3cc4c(cc3C2=O)CCC4)c2ccccc21 (configuration not stated)	> 100 µM	> 100 µM	> 100 µM	> 100 µM	> 100 µM		> 100 µM	> 100 µM	> 100 µM	> 100 µM	> 100 µM	> 100 µM	> 100 µM	> 100 µM	> 100 µM	> 100 µM	> 100 µM	98.7 µM	> 100 µM
Cc1cc(C)nc(NC(=S)Nc2cccc(Cl)c2)c1	> 100 µM	> 100 µM	> 100 µM	> 100 µM	> 100 µM		> 100 µM	> 100 µM	> 100 µM	> 58.3 µM	> 100 µM		> 100 µM	> 100 µM		> 100 µM	> 100 µM	> 100 µM	> 100 µM
CSc1sc(C)cc1-c1nsc(=O)o1	> 100 µM	> 100 µM	> 100 µM	> 100 µM		> 100 µM	> 100 µM	> 100 µM	> 100 µM	> 100 µM	> 100 µM	> 100 µM		> 100 µM	> 100 µM	> 100 µM		> 100 µM	> 100 µM
CCOC(=O)CSc1[nH]c2nc(C)nc(Cl)c2c1C#N	> 10 µM	> 10 µM	> 10 µM	> 10 µM	> 10 µM	> 10 µM		> 10 µM	> 10 µM	> 10 µM	> 10 µM		> 10 µM	> 10 µM	> 10 µM	> 10 µM	> 10 µM	> 10 µM	
CC(C)N(CCCNc1c2ccccc2nc2cccc([N+](=O)[O-])c12)C(C)C	0.155 µM	0.0473 µM		0.012 µM		< 0.01 µM		0.0935 µM		13.2 µM	< 0.0183 µM		< 0.0467 µM		< 0.0156 µM	11.8 µM		< 0.01 µM	
Nc1sccc1S(=O)(=O)c1ccsc1N	> 100 µM	> 100 µM	> 100 µM	> 100 µM	> 100 µM	> 100 µM	> 100 µM	> 100 µM	> 100 µM	> 100 µM	> 100 µM	> 100 µM	> 100 µM	> 100 µM	> 100 µM		> 100 µM	> 100 µM	> 100 µM
N#Cc1cc2c(n(C3OC(CO)C(O)C(O)C3O)c1=S)CCCCC2 (configuration not stated)	> 100 µM	> 100 µM		> 100 µM	> 100 µM	> 100 µM	> 100 µM	> 100 µM	> 100 µM	> 100 µM	> 100 µM	> 100 µM	> 100 µM	> 100 µM	> 100 µM	> 100 µM		> 100 µM	> 100 µM
NS(=O)(=O)c1cc(S(N)(=O)=O)c(NC(=O)Nc2ccc(Cl)c(Cl)c2)c(Cl)c1Cl	> 100 µM	> 100 µM	> 100 µM	> 100 µM		> 100 µM	> 100 µM	> 100 µM	> 100 µM	> 100 µM	> 100 µM	> 100 µM	> 100 µM	> 100 µM	> 100 µM	> 100 µM		> 100 µM	> 100 µM
CC1=C(C(=O)OCCc2ccc([N+](=O)[O-])cc2)C(c2ccccc2C(F)(F)F)C(C(=O)OC(C)C)=C(C)N1 (configuration not stated)	> 100 µM	> 100 µM	6.51 µM	> 100 µM	> 100 µM		61.6 µM	> 100 µM	31 µM	> 100 µM	> 100 µM	7.5 µM	> 100 µM	> 100 µM	3.09 µM	> 100 µM	> 100 µM	> 100 µM	> 100 µM
